# Reference: patent US11986464B2, “5HT3R antagonist for use in treating aneurysms and cardiovascular risk” (University of Kentucky Research Foundation, priority 2021, dated 2024)
# Columns and labels:
# Htr3a mRNA = details: nicotine co-infused with AngII, compared to AngII
# Procedure: (§1) Mice were fed a Western diet beginning one week prior to co-infusion of AngII (1,000 ng/kg/min) and nicotine (4 mg/kg/day^130). Ultrasound as used to quantify internal lumen diameters of AA to calculate the percentage of mice with pathology (50% increase compared to day 0 of infusions; FIG. 12A). […] Aortas were harvested for RNA extraction, and thus DTA maximal diameters could not be quantified at study endpoint.
# To define potential mechanisms for these effects, and whether they are linked to 5HT3R, Htr3a mRNA abundance was quantified in DTA and AA of XXF and XYM AngII-infused mice.
# [1] = test system: AngII-infused XXF and XYM Ldlr−/− mice; details: nicotine 4 mg/kg/day co-infused with AngII 1,000 ng/kg/min
# Procedure: as §1
# [2] = test system: AngII-infused XYM Ldlr−/− mice; assay: Ultrasound internal lumen diameters of abdominal aortas; assay type: in vivo; details: for average internal lumen diameter of abdominal aorta on Day 27: ultrasound, ±SEM, in mm (unit assumed)
# Procedure: (§2) Male mice (XYM Ldlr−/−) were fed a Western diet (high fat, high sucrose, high cholesterol) beginning one week prior to the start of treatments. XYM Ldlr−/− mice were then administered two different doses of Trop (10 or 20 mg/kg/day) by osmotic minipump for 7 days. The minipumps were then replaced with new pumps containing both AngII (1,000 ng/kg/min) and Trop and treatment was continued for 28 days.
# Internal lumen diameters of abdominal aortas from AngII treated mice treated with either dose of tropisetron were smaller than those from the AngII alone group after 27 days of treatment (FIG. 18). The average diameters on Day 27 were: AngII=1.77±0.35; Trop 10=1.32±0.23; Trop 20=1.20±0.28 (±SEM, *P<0.05 compared to AngII). The average diameters in all three groups increased from their baseline values with the AngII group having the largest increase followed by the Trop 20 and then Trop 10 group. […] An increase of 50% or more is considered an aneurysm.
# [3] = test system: AngII-infused XYM Ldlr−/− mice; assay: Serum cholesterol and triglycerides by enzymatic assay kits; assay type: in vivo; details: in mg/dL (unit assumed)
# Procedure: as §2, with “28 days. Concentrations of total serum cholesterol, triglycerides and free fatty acids were quantified (blood collected from cardiac puncture) using enzymatic assay kits.” for “28 days.”
# [4] = test system: AngII-infused XYM Ldlr−/− mice; assay: Atherosclerosis quantified en face (aortic arch, thoracic aorta); assay type: in vivo
# Procedure: as §2
# Atherosclerosis was quantified en face in the aortic arch. Briefly, the entire length of the aorta was removed and the intimal surface exposed, in its entirety, by a longitudinal cut through the inner curvature of the aortic arch and down the anterior aspect of the remaining aorta. A cut is also made through the greater curvature of the aortic arch to the subclavian branch. The tissue is then pinned to a dark surface. Arch areas were defined by drawing a 3-mm line from the left subclavian artery. The intimal area of the aortic arch was defined as the region from the orifice of innominate artery to the orifice of the left subclavian artery. Thoracic areas were defined by drawing a 9 mm line from the end of the arch area to the diaphragm muscle. Atherosclerotic areas were quantified by drawing a line around the borders and summing the total area of each. Lesions were summed and divided by the total arch or thoracic area to calculate the percent lesion area. Measurements were performed using Nikon NIS-Elements Version 5.2.
# [5] = test system: AngII-infused XY male Ldlr−/− mice (XYM); assay: AngII-induced aortic pathology (DTA, AA) and aortic weights; assay type: in vivo; details: for mean weight of the aortas: 7 days then 28 days with AngII 1,000 ng/kg/min, ±SEM
# Procedure: Tropisetron (Trop) is an exemplary 5HT3R antagonist used in these studies.^136 Effects of Trop were tested against AngII-induced aortic pathology in XY male Ldlr−/− mice (XYM). […] Mice were fed a Western diet (high fat, high sucrose, high cholesterol) beginning one week prior to the start of treatments. XYM Ldlr−/− mice were administered two different doses of Trop (10 or 20 mg/kg/day) by osmotic minipump for 7 days. The minipumps were then replaced with new pumps containing both AngII (1,000 ng/kg/min) and Trop and treatment was continued for 28 days. Aortas were removed from the iliac bifurcation to the end of the arch and fixed in formalin. Aortas were then cleaned and weighed.
# [6] = test system: AngII-infused XYM Ldlr−/− mice; assay: Incidence and grading of AngII-induced abdominal aortic aneurysms; assay type: in vivo; details: for mice with Abdominal Aneurysm Grade 0: 0 = no aneurysm; for mice with Abdominal Aneurysm Grade 4: 4 being a rupture
# Procedure: as §2
# [7] = test system: AngII-infused XYM Ldlr−/− mice; assay: Maximal external diameters of excised abdominal aortas; assay type: in vivo; details: ±SEM
# Procedure: as §2, with “28 days. External abdominal aortic diameters were quantified on excised, cleaned tissue mounted on a black wax background. A Nikon SMZ800 dissecting microscope was used to obtain aorta images and the maximal external diameter of the abdominal aorta was measured using Nikon NIS-Elements Version 5.2.” for “28 days.”
# [8] = test system: AngII-infused XYM Ldlr−/− mice; assay: Systolic and diastolic blood pressure induced by AngII; assay type: in vivo; details: for mean systolic blood pressure: ±SEM
# Procedure: as §2
# Blood pressures were taken on five consecutive days. Measurements from the last three days were used to calculate blood pressures for each group. The mean systolic blood pressures are in mm Hg (±SEM): AngII=149±3.4; Trop 10=146±5.6; Trop 20=128±4.4. The mean diastolic blood pressures were in mm Hg: AngII=86±4.0; Trop 10=83±6.0; Trop 20=70±4.1 (FIG. 21).
# [9] = Trop 10 or 20 mg/kg/day, compared to AngII alone
smiles,measurement,setting,value
CN1CCCC1c1cccnc1 (stereo not drawn) [nicotine],Htr3a mRNA abundance in AA,Htr3a mRNA; XXF and XYM mice,significant increase
same,Htr3a mRNA abundance in DTA,Htr3a mRNA,no effect
same,percentage of mice with pathology within the AA (50% increase in internal lumen diameter compared to day 0),[1],50%
CN1[C@@H]2CC[C@H]1C[C@@H](OC(=O)c1c[nH]c3ccccc13)C2 [Trop],average internal lumen diameter of abdominal aorta on Day 27,[2]; Trop 10 mg/kg/day,1.32±0.23
same,percent increase in abdominal aorta diameters on Day 27 compared to Day 0,"[2]; Trop 20 mg/kg/day, compared to AngII, P<0.05",significantly different
same,average internal lumen diameter of abdominal aorta on Day 27,[2]; Trop 20 mg/kg/day,1.20±0.28
same,serum cholesterol level,[3]; Trop 10 mg/kg/day,1683±109.5
same,serum triglyceride level,[3]; Trop 10 mg/kg/day,652±73.6
same,serum cholesterol level,[3]; Trop 20 mg/kg/day,1437±46.7
same,serum triglyceride level,[3]; Trop 20 mg/kg/day,549±54.4
same,atherosclerosis (percent lesion area) in the thoracic aortas,[4]; tropisetron 10 mg/kg/day,14.14±6.4%
same,percent lesion surface area of the aortic arch,[4]; tropisetron 10 mg/kg/day,14.92±5.3%
same,atherosclerosis (percent lesion area) in the thoracic aortas,[4]; tropisetron 20 mg/kg/day,7.43±7.95%
same,percent lesion surface area of the aortic arch,[4]; tropisetron 20 mg/kg/day,4.24±3.5%
same,mean weight of the aortas,[5]; Trop 10 mg/kg/day by osmotic minipump,0.035 g
same,mean weight of the aortas,[5]; Trop 20 mg/kg/day by osmotic minipump,0.023 g
same,percentage of AngII-induced pathology of AA,[5]; [9],dose-dependent reduction
same,percentage of AngII-induced pathology of DTA,[5]; [9],dose-dependent reduction
same,% Incidence of abdominal aneurysms,[6]; Trop 10 mg/kg/day,30%
same,mice with Abdominal Aneurysm Grade 1,[6]; Trop 10 mg/kg/day,3
same,mice with Abdominal Aneurysm Grade 2,[6]; Trop 10 mg/kg/day,0
same,mice with Abdominal Aneurysm Grade 3,[6]; Trop 10 mg/kg/day,0
same,mice with Abdominal Aneurysm Grade 0,[6]; Trop 10 mg/kg/day,7
same,mice with Abdominal Aneurysm Grade 4,[6]; Trop 10 mg/kg/day,0
same,% Incidence of abdominal aneurysms,[6]; Trop 20 mg/kg/day,20%
same,mice with Abdominal Aneurysm Grade 1,[6]; Trop 20 mg/kg/day,0
same,mice with Abdominal Aneurysm Grade 2,[6]; Trop 20 mg/kg/day,1
same,mice with Abdominal Aneurysm Grade 3,[6]; Trop 20 mg/kg/day,0
same,mice with Abdominal Aneurysm Grade 0,[6]; Trop 20 mg/kg/day,8
same,mice with Abdominal Aneurysm Grade 4,[6]; Trop 20 mg/kg/day,1
same,mean external diameter of abdominal aorta,[7]; Trop 10 mg/kg/day,1.08±0.13 mm
same,mean external diameter of abdominal aorta,[7]; Trop 20 mg/kg/day,0.87±0.11 mm
same,mean diastolic blood pressure,[8]; Trop 10 mg/kg/day,83±6.0 mm Hg
same,mean systolic blood pressure,[8]; Trop 10 mg/kg/day,146±5.6 mm Hg
same,mean diastolic blood pressure,[8]; Trop 20 mg/kg/day,70±4.1 mm Hg
same,mean systolic blood pressure,[8]; Trop 20 mg/kg/day,128±4.4 mm Hg
